The text below walks through data of patent US6696267B2, “Methods and compositions for screening Icrac modulators” (Warner-Lambert Company, priority 2000, dated 2004).

For orientation: IC50 means the concentration at which inhibition is half-maximal. For orientation: Ki means a dissociation constant, usually derived from enzyme kinetics or from competition with a known ligand.

Like-named read-outs stand apart in the source and are kept apart here.

Series [1] concerns NFAT-driven β-lactamase synthesis (Icrac activation) in NFAT-β-lactamase Jurkat cells. The experiment in a line: NFAT-β-lactamase gene-reporter assay in Jurkat cells (Jk-NFAT-βlac), CCF2-AM ratio 460/535. Format: cell-based. Particulars: for Effect on TG-driven β-lactamase synthesis / NFAT activation / Effect on β-lactamase synthesis at 10 μM: Jurkat cells; for Effect on TG-driven β-lactamase synthesis / NFAT activation: with TG 1 μM for 4 h (FIG. 4); for Effect on β-lactamase synthesis at 10 μM: TG 1 μM (FIG. 4). On the procedure:
(§1) Jurkat cell lines (Jk-NFAT-βlac) stably transfected with plasmid containing 3×NFAT-β-lactamase reporter gene (for NFAT promoter sequence see (19)), and plasmid containing CMV-β-lactamase (Jk-CMV-βlac), where CMV is a constitutively active promoter as well as HEK cells (HEK-CRE-βlac) with 3×CRE-β-lactamase (the CRE promoter contains CRE box sequence of CGTCA (20)) were obtained from Aurora Biosciences Corp (San Diego, Calif.).
Jurkat cells were grown in RPMI 1640 medium supplemented with 10% foetal bovine serum, 2 mM L-glutamine, 1 mM NEAA, 1 mM Na pyruvate, 25 mM HEPES, pH 7.4, gentamicin 100 μg/ml. HEK-293 cells were grown in MEM glutamax, supplemented with 10% FBS, gentamycin 100 μg/ml, HEPES 20 mM. Medium for stable cell propagation contained 250 μg/ml Zeocin (Jk-NFAT-βlac) or 800 μg/ml Geneticin (Jk-CMV-βlac, HEK-CRE-βlac). […] Cells were then loaded, for 1 h in the dark at room temperature, with 12 μM CCF2-AM (13). Fluorescence was monitored with a Fluostar (BMG, Germany) fluorimeter. Excitation was at 405 nm, and emission record at 460 nm and 535 nm. The ratio (460 nm/535 nm) of fluorescence unit (F.U.) was estimated after correction for background (medium without cells). HEK-CRE-βlac were stimulated using Forskolin 10 μM in the medium mentioned above (4×10^4 cells/well). All reagents were added with the stimulator agent (e.g. TG or forskolin), unless noticed.

The test system of series [2] is constitutive β-lactamase (CMV-driven) in Jurkat cells. The experiment in a line: Constitutive CMV-β-lactamase Jurkat cell assay (Jk-CMV-βlac). Format: cell-based. The conditions noted are these: Jk-CMV-βlac cells (FIG. 6, DMSO 3%). On the procedure:
as §1
Jurkat cells were grown in RPMI 1640 medium supplemented with 10% foetal bovine serum, 2 mM L-glutamine, 1 mM NEAA, 1 mM Na pyruvate, 25 mM HEPES, pH 7.4, gentamicin 100 μg/ml. HEK-293 cells were grown in MEM glutamax, supplemented with 10% FBS, gentamycin 100 μg/ml, HEPES 20 mM. Medium for stable cell propagation contained 250 μg/ml Zeocin (Jk-NFAT-βlac) or 800 μg/ml Geneticin (Jk-CMV-βlac, HEK-CRE-βlac). In a 96-well plate, 1 μM Thapsigargin (TG) was used to stimulate NFAT Jurkat cells (10^5 per well), for 4 h at 37° C., 5% CO2, in Dulbecco's Modified Essential Medium ([Ca^++] 1.8 mM) 10% FBS, gentamycin 100 μg/ml. Cells were then loaded, for 1 h in the dark at room temperature, with 12 μM CCF2-AM (13). Fluorescence was monitored with a Fluostar (BMG, Germany) fluorimeter. Excitation was at 405 nm, and emission record at 460 nm and 535 nm. The ratio (460 nm/535 nm) of fluorescence unit (F.U.) was estimated after correction for background (medium without cells). […]

The test system of the next series is Icrac channel. The experiment in a line: Optical measurement of intracellular [Ca++] with Fura-2. Format: cell-based. The conditions noted are these: Fura-2 as probe. On the procedure: Loading with 2 μM fura-2-AM was performed with a 3×10^6 cells suspension for 30 min at 37° C., in Hanks buffer saline solution (HBSS). Cells were washed and resuspended twice to minimize extracellular dye. Fura-2 fluorescence measurements were carried out in a water-jacketed cuvette (room temperature) with continuous stirring, containing 1 ml of the cells suspension. Fluorescence was monitored with a Shimadzu spectrofluorophotometer by continuously (1 sec intervals) collecting excitation signals at 340 nm and 380 nm and emission signal at 510 nm. Maximal and minimal fluorescence were obtained by adding ionomycin 25 μM and EGTA (20 mM) respectively and sequentially at the end of the experiment. The ratio of excitation signals at 340 nm and 380 nm was used to calculate [Ca^++] as previously described (21) assuming a Kd of 155 nM.

In series [3] the test system is NFAT-β-lactamase Jurkat cells. The experiment in a line: CCF2-AM loading capacity of NFAT-β-lactamase Jurkat cells (F.U. at 535 nm). Particulars: for Toxic effects (weak loading): 50 μM, data not shown.
The subject of series [4] is NFAT-driven β-lactamase synthesis in p815 mastocyte cells. The series can be described thus: NFAT-β-lactamase gene-reporter assay in p815 mastocytes (p815-NFAT-βlac). Format: cell-based. Particulars: mastocytes (not shown). On the procedure: The mastocyte monoclonal cell line (p815-NFAT-βlac) stably transfected with plasmid containing 3×NFAT-β-lactamase were obtained as follow. Cells (1.10^7/ml) were electroporated in a 0.4 cm gap cuvette using a BioRad Gene Pulser II at 960 μF and 300V, using 20 μg of pcDNAIII 3×NFAT-β-lactamase Zeomycin expression vector (from Aurora Biosciences Corp; San Diego, Calif.) in DMEM medium. After 48 h, electroporated p815 cells were selected for 2 weeks using 250 μg/ml Zeocin (InVitrogen, Calif.). A pool of TG responding cells were first sorted, using FACS Vantage (Becton Dickinson, Calif.), and a week after, 200 cells were monosorted (one cell per well) from this pool, 15 clones grown up, and were tested as follow.
Jurkat cells were grown in RPMI 1640 medium supplemented with 10% foetal bovine serum, 2 mM L-glutamine, 1 mM NEAA, 1 mM Na pyruvate, 25 mM HEPES, pH 7.4, gentamicin 100 μg/ml. HEK-293 cells were grown in MEM glutamax, supplemented with 10% FBS, gentamycin 100 μg/ml, HEPES 20 mM. Medium for stable cell propagation contained 250 μg/ml Zeocin (Jk-NFAT-βlac) or 800 μg/ml Geneticin (Jk-CMV-βlac, HEK-CRE-βlac). […] Fluorescence was monitored with a Fluostar (BMG, Germany) fluorimeter. […] The ratio (460 nm/535 nm) of fluorescence unit (F.U.) was estimated after correction for background (medium without cells). […]
On the technique in general: In a reporter assay the amount or activity of a reporter protein is the signal.

Another series deals with β-lactamase. The conditions noted are these: β-lactamase inhibitor; cited from earlier work.

For the compound phytohemaggutinin [PHA], in series [1] (PHA 1 μg/ml), the “% total (TG 1 μM)” value was determined as 41% and the “Ratio (460 nm/535 nm)” value amounted to 0.280 ± 0.116. In series [1] (PHA 10 μg/ml), the “% total (TG 1 μM)” value is reported as 84% and the “Ratio (460 nm/535 nm)” value was determined as 0.578 ± 0.040.
In the case of `C[S+](C)[O-]` [DMSO, dimethyl sulfoxide], in series [1] (0.5% final concentration), the “Interference with the assay” value was “did not hinder the assay”. Moreover, the “Effect on β-lactamase synthesis when added after TG activation” value in series [1] (added 3 hrs after TG activation) is “did not block β-lactamase synthesis”. Further, the “Effect on constitutive β-lactamase synthesis” value in series [2] was “no effect”. Also, the “Effect on the Icrac channel, [Ca++]i determination” value with Icrac channel is “no effect”. For the same compound, the “F.U. at 535 nm, % control” value in series [3] (DMSO 0.1%) is recorded as 99.2%; in series [3] (DMSO 1%), 96.1%; in series [3] (DMSO 2%) it was 97%; in series [3] (DMSO 4%), 107.7%; in series [3] (DMSO 5%), 110.1%.
For the compound calyculin, the “Effect on TG-driven β-lactamase synthesis / NFAT activation” value in series [1] is listed as “blocked the NFAT activation in a dose dependent manner”.
`C[C@@H]1C[C@@H]([C@H](O)CC2CC(=O)NC(=O)C2)C(=O)[C@@H](C)C1` [CHX, cycloheximide]: in series [1] (added as long as 4 hrs after TG stimulation), the “Effect on β-lactamase synthesis when added after TG stimulation” value is listed as “inhibitory effect”.
For the compound `COc1ccc(CCN(C)CCCC(C#N)(c2ccc(OC)c(OC)c2)C(C)C)cc1OC` (stereo not drawn) [Verapamil], the “Effect on β-lactamase synthesis at 10 μM” value in series [1] is “did not have any effect”. Further, the “Toxic effects (weak loading)” value in series [3] was “Toxic effects were detected”.
Consider `C=C1[C@@H](O)[C@@H]2O[C@]3(CC[C@H](/C=C/[C@@H](C)[C@@H]4CC(C)=C[C@@]5(O[C@H](C[C@@](C)(O)C(=O)O)CC[C@H]5O)O4)O3)CC[C@H]2O[C@@H]1[C@@H](O)C[C@H](C)[C@H]1O[C@@]2(CCCCO2)CC[C@H]1C` [Okadaic acid, okadaic acid], for which the “Effect on β-lactamase synthesis” value in series [4] is on record as “blocked the β-lactamase synthesis”. Besides, in series [1], the “Effect on TG-driven β-lactamase synthesis / NFAT activation” value is on record as “blocked the β-lactamase synthesis”.
For the compound `C/C=C(/C)C(=O)O[C@H]1C(C)=C2[C@H]([C@@H]1OC(=O)CCCCCCC)[C@@](C)(OC(C)=O)C[C@H](OC(=O)CCC)[C@@]1(O)[C@H]2OC(=O)[C@@]1(C)O` [TG, thapsigargin], the “β-lactamase synthesis versus TG concentration” value in series [1] (5-10 μM TG) is on record as “decrease was observed”; in series [1] (concentrations higher than 1 μM (FIG. 2C)), “did not further increase the β-lactamase synthesis”. For the same compound, in series [1] (TG 1 μM), the “% total (TG 1 μM)” value is recorded as 100%. Further, the “Ratio (460 nm/535 nm)” value in series [1] (TG 1 μM) was found to be 0.688 ± 0.035. Further, the “Relative potency as Icrac activator (in words)” value in series [1] (Table 1) is recorded as “most active Icrac activator”. The “β-lactamase activity with thapsigargin alone” value in series [1] (conventional conditions, 0.4 mM [Ca++] (FIG. 2B)) is on record as “weak”.
Consider `CC(=O)C1=C(O)[C@@H]2[C@H]3c4c[nH]c5cccc(c45)C[C@H]3C(C)(C)N2C1=O` [CPA, cyclopiazonic acid], for which the “Ratio (460 nm/535 nm)” value in series [1] is given as 0.407 ± 0.041. In addition, the “% total (TG 1 μM)” value in series [1] (CPA 10 μM) turned out to be 59%.
As for `CCCCCCCCCCCCCC(=O)O[C@@H]1[C@@H](C)[C@@]2(O)[C@@H](C=C(CO)C[C@]3(O)C(=O)C(C)=C[C@@H]23)[C@@H]2C(C)(C)[C@]12OC(C)=O` [PMA, phorbol myristate acetate], the “Ratio (460 nm/535 nm)” value in series [1] stood at 0.012 ± 0.008. Further, the “% total (TG 1 μM)” value in series [1] (PMA 10 nM) is 2%.
Consider `C[C@]1(Cn2ccnn2)[C@H](C(=O)O)N2C(=O)C[C@H]2S1(=O)=O` [Tazobactam], for which the concentration for half-maximal inhibition (IC50) in series [1] (Homo sapiens, Jurkat, NFAT-driven (FIG. 4), read-out: IC50, block of NFAT-driven β-lactamase) was 2000 nM. Also, the inhibition constant (Ki) on β-lactamase was 700 nM.
Consider `COc1ccc([C@@H]2Sc3ccccc3N(CCN(C)C)C(=O)[C@@H]2OC(C)=O)cc1` [Diltiazem], for which the “Effect on β-lactamase synthesis at 10 μM” value in series [1] is recorded as “did not have any effect”. Also, the “Toxic effects (weak loading)” value in series [3] is given as “Toxic effects were detected”.
